In ChEMBL document CHEMBL4368877, “Discovery of potent pyruvate dehydrogenase kinase inhibitors and evaluation of their anti-lung cancer activity under hypoxia” (Medchemcomm, 2018):
The source made the active and inactive calls. No cut-off for these calls is given here.

Tests used:
[1] = target: [Pyruvate dehydrogenase (acetyl-transferring)] kinase isozyme 1, mitochondrial (Homo sapiens, UniProt Q15118); assay: Inhibition of PDK1 (unknown origin) using PDC E1 as substrate measured after 30 mins by kinase-glo assay
NCI-H1975 [2] = assay: Cytotoxicity against human NCI-H1975 cells assessed as reduction in cell proliferation after 72 hrs under hypoxic condition by MTT assay; details: NCI-H1975, 72 h
[3] = target: [Pyruvate dehydrogenase (acetyl-transferring)] kinase isozyme 2, mitochondrial (Homo sapiens, UniProt Q15119); assay: Inhibition of PDK2 (unknown origin) using PDC E1 as substrate measured after 30 mins by kinase-glo assay
[4] = target: [Pyruvate dehydrogenase (acetyl-transferring)] kinase isozyme 3, mitochondrial (Homo sapiens, UniProt Q15120); assay: Inhibition of PDK3 (unknown origin) using PDC E1 as substrate measured after 30 mins by kinase-glo assay
[5] = target: [Pyruvate dehydrogenase (acetyl-transferring)] kinase isozyme 4, mitochondrial (Homo sapiens, UniProt Q16654); assay: Inhibition of PDK4 (unknown origin) using PDC E1 as substrate measured after 30 mins by kinase-glo assay
NCI-H1975 [6] = assay: Cytotoxicity against human NCI-H1975 cells assessed as reduction in cell proliferation at 1 to 10 uM after 72 hrs under normoxic condition by MTT assay; assay type: cell-based; details: nci-h1975, 72 h
[7] = target: Pyruvate dehydrogenase kinase (Homo sapiens) (UniProt Q15119+Q15120+Q16654+Q15118); assay: Inhibition of PDK in human NCI-H1975 cells assessed as reduction in PDC phosphorylation at 10 uM measured after 12 hrs under hypoxic condition by Western blot analysis; assay type: cell-based

Sequence of [Pyruvate dehydrogenase (acetyl-transferring)] kinase isozyme 4, mitochondrial (Q16654 whole entry): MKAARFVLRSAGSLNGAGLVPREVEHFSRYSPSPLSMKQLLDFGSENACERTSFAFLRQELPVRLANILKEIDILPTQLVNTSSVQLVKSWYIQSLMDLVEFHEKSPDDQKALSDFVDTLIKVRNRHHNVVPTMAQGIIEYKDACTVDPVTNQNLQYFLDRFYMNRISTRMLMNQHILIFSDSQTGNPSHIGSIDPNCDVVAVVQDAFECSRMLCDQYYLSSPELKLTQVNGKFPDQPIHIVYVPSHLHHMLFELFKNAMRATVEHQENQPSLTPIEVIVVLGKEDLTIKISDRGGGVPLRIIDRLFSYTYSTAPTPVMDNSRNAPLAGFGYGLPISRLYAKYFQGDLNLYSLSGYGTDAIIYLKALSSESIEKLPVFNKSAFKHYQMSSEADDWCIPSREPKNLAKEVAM
Sequence of [Pyruvate dehydrogenase (acetyl-transferring)] kinase isozyme 3, mitochondrial (Q15120 whole entry): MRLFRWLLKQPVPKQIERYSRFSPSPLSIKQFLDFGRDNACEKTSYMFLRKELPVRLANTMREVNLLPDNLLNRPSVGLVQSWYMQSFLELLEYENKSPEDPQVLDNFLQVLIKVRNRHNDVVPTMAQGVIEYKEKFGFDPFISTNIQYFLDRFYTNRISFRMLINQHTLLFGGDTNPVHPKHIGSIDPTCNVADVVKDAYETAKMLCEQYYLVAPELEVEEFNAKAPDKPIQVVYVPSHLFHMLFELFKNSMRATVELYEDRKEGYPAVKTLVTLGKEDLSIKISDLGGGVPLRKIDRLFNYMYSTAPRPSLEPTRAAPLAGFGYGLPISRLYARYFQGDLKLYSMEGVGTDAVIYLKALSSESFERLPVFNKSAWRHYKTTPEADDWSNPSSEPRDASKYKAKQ
Sequence of [Pyruvate dehydrogenase (acetyl-transferring)] kinase isozyme 1, mitochondrial (Q15118 whole entry): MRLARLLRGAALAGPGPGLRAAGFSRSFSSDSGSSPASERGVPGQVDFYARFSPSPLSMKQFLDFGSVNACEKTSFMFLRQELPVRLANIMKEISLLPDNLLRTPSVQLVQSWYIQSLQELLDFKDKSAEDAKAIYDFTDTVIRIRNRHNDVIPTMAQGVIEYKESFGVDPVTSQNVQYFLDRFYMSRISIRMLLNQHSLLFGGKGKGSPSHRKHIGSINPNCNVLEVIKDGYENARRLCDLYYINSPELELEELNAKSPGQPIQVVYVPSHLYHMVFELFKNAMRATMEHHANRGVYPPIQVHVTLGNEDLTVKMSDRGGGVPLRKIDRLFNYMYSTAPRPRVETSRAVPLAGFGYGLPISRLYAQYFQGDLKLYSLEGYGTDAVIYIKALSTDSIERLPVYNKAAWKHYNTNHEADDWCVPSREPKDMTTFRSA

Row | Structure (SMILES) | IC50 [1] [nM] | EC50 (NCI-H1975 [2]) [µM] | IC50 [3] [nM] | IC50 [4] [µM] | IC50 [5] [µM] | Activity (NCI-H1975 [6]) | inhibition [7]
1 | O=C(NCc1ccccc1-n1cccn1)c1cc(-c2ccccc2O)n[nH]1 | 620 | 4.28 | 2600 | 4.8 | 8.7 | Non-Toxic | –
2 | Cc1cnc(Cl)nc1-c1ccc(N(Cc2ccc(CNC(=O)C(F)F)cc2)C(=O)c2ccc(O)cc2O)cc1 | – | – | – | – | – | Non-Toxic | –
3 | CN(C)CCCn1ccnc1[C@H]1CCCN(C(=O)c2ccc3cc[nH]c3c2)C1 | 1260 | – | 2500 | 7.8 | 12.3 | Non-Toxic | –
4 | OCCOc1ccc(CN2CCN(Cc3ccc(F)c(F)c3)[C@@H](CCO)C2)cc1 | – | – | 1500 | 3.9 | 6.8 | Non-Toxic | –
5 | O=C(c1ccccc1)C(Cl)Cl | – | – | – | – | – | – | Active
